# Results reported in PMC12668314, “Identification of a Proteolysis‐Targeting‐Chimera that Addresses Activated Checkpoint Kinase‐1 Reveals its Non‐Catalytic Functions in Tumor Cells” (Angewandte Chemie (International Ed. in English), 2025).
# Target: T1, CHK1 (checkpoint kinase-1) (Homo sapiens, UniProt O14757)
# T1 construct: gene CHEK1
# T1 sequence (O14757 1-476): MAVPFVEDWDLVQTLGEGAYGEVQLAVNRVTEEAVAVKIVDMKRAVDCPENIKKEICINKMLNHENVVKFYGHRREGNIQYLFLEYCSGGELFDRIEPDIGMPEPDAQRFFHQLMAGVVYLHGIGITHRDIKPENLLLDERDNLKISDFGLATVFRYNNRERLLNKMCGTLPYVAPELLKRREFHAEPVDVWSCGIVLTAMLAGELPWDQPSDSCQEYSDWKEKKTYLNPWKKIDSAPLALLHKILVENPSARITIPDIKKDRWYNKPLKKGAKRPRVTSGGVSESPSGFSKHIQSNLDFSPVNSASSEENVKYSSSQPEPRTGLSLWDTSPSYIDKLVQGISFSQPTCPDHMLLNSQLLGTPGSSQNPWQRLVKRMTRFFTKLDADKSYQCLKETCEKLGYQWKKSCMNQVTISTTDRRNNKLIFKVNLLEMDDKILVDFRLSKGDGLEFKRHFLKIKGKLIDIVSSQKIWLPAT
# Experiment: in vitro binding test against human CHK1 (Eurofins Discovery), at […]
row,inhibition at 1 µM,Compound
1,90%,CNC(=O)c1ccc(OC[C@@H]2CNCCO2)c(NC(=O)Nc2cnc(C)cn2)c1 [9b]
2,98%,Cc1cnc(NC(=O)Nc2cc(Br)c(C)cc2OC[C@@H]2CNCCO2)cn1 [rabusertib]
3,95%,CNC(=O)c1ccc(NC(=O)Nc2cnc(C)cn2)c(OC[C@@H]2CNCCO2)c1 [9a]
